Source: patent publication US20210379062A1, “The use of a H3R inverse agonist for the treatment of excessive daytime sleepiness associated with parkinson's disease (PD)” (Novartis AG, priority 2018, published 2021)
Where two headings read alike, the source gives them in different places.

Columns and labels:
[1] = Rat brain and plasma PK; format: in vivo; conditions: 10 mg/kg oral, rats
[2] = tested on: tele-methylhistamine (tMeHA); test: Ex vivo PD determination: brain tele-methylhistamine time course in rats; parameters: species or system rat; conditions: 10 mg/kg oral; for effect on tMeHA levels: brain
Experimental: Male Sprague-Dawley rats (Shanghai SLAC Laboratory Animal Co. LTD) of 6-7 weeks age were used. Animals were housed in a temperature and humidity-controlled environment on a 12 h light/dark. All animals had free access to food and water. All procedures were approved by Institutional Animal Care and Use Committee of ChemPartner Co., LTD (IACUC Protocol NO: A998HL0002).
For bioanalysis of brain tissue tele-methylhistamine samples were further processed.
One aliquot of the stock solution was diluted using ethanol/phosphate buffer pH 7.4 (85:15, v/v) to achieve a series working solutions. The brain homogenate was centrifuged at 12000 rpm for 5 min at 4° C. Then 10 μL supernatant of the brain homogenate sample was added to 60 μL internal standard (d3-1-methyl-histamine, 20 ng/mL). The mixture was vortexed for 2 min and centrifuged at 12000 rpm for 5 min at 4° C. Finally, 60 μL supernatant was added and 3 μL supernatant was injected into LC-MS/MS for analysis (Agilent 6410, triple quadrupole mass spectrometer, Mobile phase A: H2O— 0.1% NH3, Mobile phase B: methanol— 0.1% NH3, Column: Ultimate XB-C18 (2.1×50 mm, 5 μm, Flow rate: 0.45 mL/min, temperature: 40° C.).

[3] = tested on: H3 receptor; test: Ex vivo receptor occupancy assay in rat frontal cortex; conditions: rats; for dose that resulted in H3 receptor occupancy of 80-90%: oral dosing, 1 h after compound administration
Experimental: Male Sprague-Dawley rats (from Shanghai SLAC Laboratory Animal CO. LTD) at the age of 5-6 weeks were used. The animals were housed in a temperature and humidity-controlled environment on a 12 h light/dark cycle with food and water available ad libitum. All the procedures were approved by Institutional Animal Care and Use Committee of Chempartner Co., LTD (IACUC Protocol NO: A998HL0076).
Compounds were dissolved in 50 mM citrate buffer (pH 3.5), or saline. The compound was then diluted stepwise to the final concentration with vehicle. Animals were dosed by p.o. or i.v. in 1 ml/kg bodyweight.
At each time point, rats were decapitated immediately. Intact brain was removed, immersed and washed in pre-cooled saline. After drying with filter paper, frontal cortex was dissected with a double-blade with an about 30° angle starting at ⅓ of anterior rat brain (weight of most brain tissues around 70±10 mg). Brain tissue was transferred into a pre-weighed tube with homogenizer beads. The tubes were weighed again and the tissue net weight was recorded. Tissue sampling was done on ice with intervals of 1 min. Then, 50 mM HEPES (Gibco® by Life Technologies) buffer were added (equivalent to 3.75 μl/mg tissue weight) followed by homogenization (frequency 30/sec for 20 sec, TissueLyser, Quiagen).
The crude homogenate samples of rat frontal cortex were used to measure H3 receptor binding as described above with [^3H]—N-α-methylhistamine as radioligand. The protein concentration of each sample was determined by Pierce BCA Protein Assay Kit (Thermo).
The cortical homogenate was added to a 96-well plate containing [^3H]—N-α-methylhistamine (0.1 nM), in a volume of 0.2 ml (final protein concentration 4 μg/μl), incubated at 28° C. for 15 min and the reaction was stopped by rapid filtration using a filtration plate (Millipore multiscreen GF/B plate). The filters were washed three times with ice-cold wash buffer (50 mM Tris, pH 7.5) and 250 μl of Microscint-40 were added followed by determination of the bound radiolabel with a Wallac Microbeta Trilux 2450 (Perkin Elmer). Nonspecific binding was determined in the presence of 10 μM thioperamide. Each data point was obtained from a total of at least four animals. The inhibition of specific [^3H]NAMH binding, calculated as relative to vehicle-treated samples, was determined to provide an indication of receptor occupancy by the compound. The dose-dependent % RO and time course were analyzed using GraphPad Prism. The dose response was fit using GraphPad Prism: log(inhibitor) vs. response with variable slope.

[4] = target: T1, Human histamine H3 receptor (Homo sapiens, UniProt Q9Y5N1); test: Radioligand binding assay with [3H]-N-α-methylhistamine; conditions: human recombinant H3R, 1.0 nM [3H]-N-α-methylhistamine, Cheng-Prusoff
T1 construct: purchased PerkinElmer
T1 sequence (Q9Y5N1 whole entry): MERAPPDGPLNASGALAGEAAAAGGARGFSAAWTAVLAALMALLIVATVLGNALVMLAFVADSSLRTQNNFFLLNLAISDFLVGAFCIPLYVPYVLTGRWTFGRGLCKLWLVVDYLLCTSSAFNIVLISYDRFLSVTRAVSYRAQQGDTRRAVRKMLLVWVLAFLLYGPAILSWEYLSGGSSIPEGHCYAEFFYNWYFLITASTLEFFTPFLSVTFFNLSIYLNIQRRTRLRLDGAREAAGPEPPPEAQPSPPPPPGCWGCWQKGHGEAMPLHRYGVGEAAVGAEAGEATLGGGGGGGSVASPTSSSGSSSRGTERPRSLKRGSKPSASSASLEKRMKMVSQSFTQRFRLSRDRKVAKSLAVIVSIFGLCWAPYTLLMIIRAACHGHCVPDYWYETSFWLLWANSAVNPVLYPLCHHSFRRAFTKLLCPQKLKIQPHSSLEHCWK
Experimental: Human histamine H3 receptor membrane (PerkinElmer) were incubated with 1.0 nM [^3H]—N-α-methylhistamine (PerkinElmer) in the presence or absence of increasing concentrations of ligands for H3 receptor competition binding. The binding incubations were in a final volume of 0.1 ml buffer (50 mMTris pH 7.5, 5 mM MgCl2) at 28° C. for 120 minutes. Thioperamide (10 μM) was used to define non-specific binding.
All binding reactions were terminated by transferring 70 μl binding reaction from the reaction plate into filtration plates (Zeba 96-well Spin Desalting Plates, Thermo Scientific), followed by centrifugation at 1000 g for 2 min to collect the protein with bound radioligand. 200 μl of microscint-40 were added to determine the bound radiolabel by a Wallac Microbeta Trilux 2450 (Perkin Elmer). For all radioligand competition binding assays, IC50 values and Hill slopes were determined by GraphPad Prism: log(inhibitor) vs. response with variable slope. Ki was calculated using the equation in Biochem. Pharmacol. 1973. 22 (23), 3099-3108, from Cheng and Prusoff: Ki=IC50/{1+([radioligand]/Kd)}.

[5] = cited from earlier work
[6] = 100-200 mg/day, two weeks treatment, excessive sleepiness associated with PD

SMILES | total brain exposure [1] | effect on tMeHA levels [2] | initial RO ([3]; 300 mg/kg oral, 0.5 h) | RO ([3]; 300 mg/kg oral, 8 h after compound administration) | dose that resulted in H3 receptor occupancy of 80-90% [3] | rate of exposure-decline in brain, relative to Compound (I) [1] | brain exposure ([1]; 8 h time point) | time at which tMeHA increase is first observed [2] | tMeHA level at 8 h ([2]; 8 h) | Ki [4] | RO ([3]; 10 mg/kg oral, 7 h) | initial RO ([3]; 10 mg/kg oral, time not given) | Epworth Sleeping Scale scores [5, 6] | sleep latency in the Maintenance of Wakefulness Test [5, 6] | Epworth Sleeping Scale scores ([5]; 200-400 mg/day for four weeks)
Clc1ccc(CCCOCCCN2CCCCC2)cc1 [pitolisant, reference compound] | very low | no increase | ~90% | 40% | 300 mg/kg | – | – | – | – | – | – | – | – | – | –
O=C(c1ccc(CN2CCOCC2)cc1)N1CCN(C2CC2)CC1 [bavisant, reference compound] | very high | delayed increase | – | – | 10 mg/kg | much slower | high | 1 h | stayed elevated | 0.102 µM | 37% | 90% | – | – | –
NC(=O)C[S+]([O-])C(c1ccccc1)c1ccccc1 (stereo not drawn) [modafinil, 2-(benzhydrylsulfinyl)acetamide] | – | – | – | – | – | – | – | – | – | – | – | – | improved | but not sleep latency | no improvement
